The values that follow come from publication PMC7774954, “Interactomic affinity profiling by holdup assay: Acetylation and distal residues impact the PDZome-binding specificity of PTEN phosphatase” (PLoS ONE, 2020).

*1 amine or outer side, *2 acyl side, *3 side chain or, on linkers, in order; H or OH if unused. Where a SMILES comes first, the peptide text is derived from it. The star is where a group is joined. X1 = O=C(CCCC[C@@H]1SC[C@@H]2NC(=O)N[C@@H]21)NCCCOCCOCCOCCCN*; Suc = O=C(CCC(=O)[*:2])[*:1]

Assay [1] deals with INADL-1. The experiment in a line: Holdup assay, INADL-1. The assay is classed as binding, human.
Assay [2] deals with T1, DLG3-2 (Homo sapiens, UniProt Q92796).
T1 sequence (Q92796 244-330): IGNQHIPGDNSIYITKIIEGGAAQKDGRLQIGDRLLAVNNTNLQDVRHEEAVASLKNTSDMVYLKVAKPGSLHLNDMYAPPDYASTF
Put plainly: Holdup assay, DLG3-2. The class given is binding.

The subject of assay [3] is GRIP1-6. Put plainly: Holdup assay, GRIP1-6. The class given is binding, human.
Assay [4] deals with CARD11-1. Put plainly: Holdup assay, CARD11-1. The class given is binding, human.
For assay [5], the target named is INADL-8 (Homo sapiens, UniProt Q8NI35). The experiment in a line: Holdup assay, INADL-8. The assay is classed as binding.
Assay [6] deals with GRIP2-5. Put plainly: Holdup assay, GRIP2-5. The assay is classed as binding, human.
Assay [7] has as its system INADL-3. Put plainly: Holdup assay, INADL-3. The class given is binding, human.
In assay [8] the test system is MAGI3-4. Put plainly: Holdup assay, MAGI3-4. The class given is binding, human.
For assay [9], the system named is CARD14-1. The experiment in a line: Holdup assay, CARD14-1. The class given is binding, human.
Assay [10] deals with T2, MAGI3-6 (Homo sapiens, UniProt Q5TCQ9).
T2 sequence (Q5TCQ9 1-1481): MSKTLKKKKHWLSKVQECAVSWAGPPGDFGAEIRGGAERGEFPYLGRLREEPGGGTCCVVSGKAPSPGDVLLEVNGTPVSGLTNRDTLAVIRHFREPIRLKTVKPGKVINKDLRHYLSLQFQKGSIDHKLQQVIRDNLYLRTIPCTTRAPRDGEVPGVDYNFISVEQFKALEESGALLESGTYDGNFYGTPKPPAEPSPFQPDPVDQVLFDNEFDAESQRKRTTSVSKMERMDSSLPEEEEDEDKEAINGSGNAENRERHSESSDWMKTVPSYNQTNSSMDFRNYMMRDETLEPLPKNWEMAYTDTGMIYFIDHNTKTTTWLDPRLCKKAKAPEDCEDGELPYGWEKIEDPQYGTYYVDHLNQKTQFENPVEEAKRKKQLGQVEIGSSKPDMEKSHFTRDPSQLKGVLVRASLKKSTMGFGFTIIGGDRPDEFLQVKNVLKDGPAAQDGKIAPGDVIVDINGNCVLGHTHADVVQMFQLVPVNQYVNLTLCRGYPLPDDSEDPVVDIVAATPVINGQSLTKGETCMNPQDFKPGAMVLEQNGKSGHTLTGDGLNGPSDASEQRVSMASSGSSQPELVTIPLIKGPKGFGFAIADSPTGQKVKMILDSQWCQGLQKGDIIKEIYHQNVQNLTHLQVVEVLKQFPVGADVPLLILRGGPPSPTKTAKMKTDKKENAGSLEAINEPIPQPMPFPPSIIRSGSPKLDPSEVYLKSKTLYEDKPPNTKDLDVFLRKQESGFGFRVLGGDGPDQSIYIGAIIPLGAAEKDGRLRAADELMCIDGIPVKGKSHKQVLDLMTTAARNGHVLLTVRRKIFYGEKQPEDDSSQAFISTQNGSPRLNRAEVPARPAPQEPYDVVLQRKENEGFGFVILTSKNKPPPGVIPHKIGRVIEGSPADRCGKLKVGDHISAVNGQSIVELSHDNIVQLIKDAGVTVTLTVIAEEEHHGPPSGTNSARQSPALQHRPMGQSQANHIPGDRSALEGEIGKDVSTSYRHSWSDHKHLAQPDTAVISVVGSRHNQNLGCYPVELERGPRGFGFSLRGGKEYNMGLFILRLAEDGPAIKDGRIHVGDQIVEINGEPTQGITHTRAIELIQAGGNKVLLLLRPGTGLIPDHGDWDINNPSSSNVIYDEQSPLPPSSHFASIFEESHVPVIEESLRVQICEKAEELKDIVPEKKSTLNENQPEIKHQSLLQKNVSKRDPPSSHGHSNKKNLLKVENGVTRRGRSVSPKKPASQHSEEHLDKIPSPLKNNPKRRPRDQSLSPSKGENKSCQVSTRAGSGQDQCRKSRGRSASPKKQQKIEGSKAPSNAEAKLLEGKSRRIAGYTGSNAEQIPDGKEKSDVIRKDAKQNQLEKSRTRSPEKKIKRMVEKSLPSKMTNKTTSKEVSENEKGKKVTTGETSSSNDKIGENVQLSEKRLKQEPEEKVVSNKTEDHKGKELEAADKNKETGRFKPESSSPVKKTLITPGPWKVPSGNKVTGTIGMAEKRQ
The experiment in a line: Holdup assay, MAGI3-6. The assay is classed as binding.

INADL-8, sequence (Q8NI35 whole entry): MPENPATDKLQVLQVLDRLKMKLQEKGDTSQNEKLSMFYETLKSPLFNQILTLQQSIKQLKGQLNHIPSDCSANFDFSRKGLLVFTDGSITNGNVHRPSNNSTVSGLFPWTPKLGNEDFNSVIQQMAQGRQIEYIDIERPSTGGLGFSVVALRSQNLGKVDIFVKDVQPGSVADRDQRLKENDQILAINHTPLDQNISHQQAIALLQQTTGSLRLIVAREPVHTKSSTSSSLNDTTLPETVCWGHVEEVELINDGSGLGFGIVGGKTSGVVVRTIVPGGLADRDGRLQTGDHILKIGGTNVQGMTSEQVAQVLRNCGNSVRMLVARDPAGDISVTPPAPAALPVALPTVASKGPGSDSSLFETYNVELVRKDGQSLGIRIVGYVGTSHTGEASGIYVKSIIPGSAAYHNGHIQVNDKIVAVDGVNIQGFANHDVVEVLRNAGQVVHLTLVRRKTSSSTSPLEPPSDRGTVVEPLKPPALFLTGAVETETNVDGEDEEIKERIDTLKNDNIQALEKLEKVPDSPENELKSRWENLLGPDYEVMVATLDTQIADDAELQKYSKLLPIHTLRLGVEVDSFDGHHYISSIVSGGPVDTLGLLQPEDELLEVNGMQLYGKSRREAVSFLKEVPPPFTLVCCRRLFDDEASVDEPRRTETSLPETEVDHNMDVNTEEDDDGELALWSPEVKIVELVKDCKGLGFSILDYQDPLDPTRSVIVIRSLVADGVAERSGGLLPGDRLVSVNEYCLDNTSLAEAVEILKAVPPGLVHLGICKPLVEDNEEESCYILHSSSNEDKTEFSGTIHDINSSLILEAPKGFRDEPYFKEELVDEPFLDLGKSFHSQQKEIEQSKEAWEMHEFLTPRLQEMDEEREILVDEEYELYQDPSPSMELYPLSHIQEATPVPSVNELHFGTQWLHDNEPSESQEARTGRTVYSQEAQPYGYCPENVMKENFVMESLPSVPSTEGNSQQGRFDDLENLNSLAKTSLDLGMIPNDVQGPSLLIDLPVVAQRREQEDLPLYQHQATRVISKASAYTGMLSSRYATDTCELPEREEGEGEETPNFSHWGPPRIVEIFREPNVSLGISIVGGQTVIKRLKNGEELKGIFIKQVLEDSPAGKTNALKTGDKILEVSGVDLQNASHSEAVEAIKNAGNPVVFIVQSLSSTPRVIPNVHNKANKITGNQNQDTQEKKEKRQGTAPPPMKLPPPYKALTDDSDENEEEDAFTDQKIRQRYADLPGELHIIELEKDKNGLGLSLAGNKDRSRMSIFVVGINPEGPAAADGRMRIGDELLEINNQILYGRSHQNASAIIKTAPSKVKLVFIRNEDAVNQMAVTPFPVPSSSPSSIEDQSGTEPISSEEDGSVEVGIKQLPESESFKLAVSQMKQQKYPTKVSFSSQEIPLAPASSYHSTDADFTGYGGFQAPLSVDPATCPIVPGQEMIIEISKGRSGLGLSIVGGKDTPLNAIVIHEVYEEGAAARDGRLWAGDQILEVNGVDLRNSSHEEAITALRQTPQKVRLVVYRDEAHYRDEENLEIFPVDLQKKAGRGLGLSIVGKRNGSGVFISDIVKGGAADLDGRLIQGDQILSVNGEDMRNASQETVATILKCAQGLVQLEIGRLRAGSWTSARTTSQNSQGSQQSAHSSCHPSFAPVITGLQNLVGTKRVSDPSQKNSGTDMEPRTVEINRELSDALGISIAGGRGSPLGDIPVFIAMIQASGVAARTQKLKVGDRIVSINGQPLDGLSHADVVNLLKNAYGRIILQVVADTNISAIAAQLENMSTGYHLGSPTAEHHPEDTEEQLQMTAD

As to `CC[C@H](C)[C@H](NC(=O)[C@H](CCC(N)=O)NC(=O)[C@@H](NC(=O)[C@H](Cc1c[nH]cn1)NC(=O)[C@H](CCC(N)=O)NC(=O)[C@H](CC(=O)O)NC(=O)[C@H](CCC(=O)O)NC(=O)[C@H](CC(=O)O)NC(=O)CCC(=O)NCCCOCCOCCOCCCNC(=O)CCCC[C@@H]1SC[C@@H]2NC(=O)N[C@@H]21)[C@@H](C)O)C(=O)N[C@H](C(=O)N[C@@H](CCCNC(=N)N)C(=O)N[C@H](C(=O)O)C(C)C)[C@@H](C)O` [PTEN_KR] ({X1-Suc}-DEDQHTQITRV-OH), the BI in assay [1] was 0.058; in assay [2], 0.277; in [3], 0.038; in assay [4] it was -0.097; in [5], 0.532; in assay [6], 0.006. For the same compound, the BI in [7] was -0.042; in [8] it was -0.011; in assay [9], -0.077; in assay [10], 0.067. In addition, the LogKD in [1], in [3], in assay [4], in [6], in assay [7] and in assay [8] was 3.655 each time. Moreover, the LogKD in [9] and in assay [10] was 3.655 in each case. The Kd (in general, the equilibrium constant for the complex coming apart) in [2] was 62.4 µM; in [5], 20.1 µM.

As to `CC[C@H](C)[C@H](NC(=O)[C@H](CCC(N)=O)NC(=O)[C@@H](NC(=O)[C@H](Cc1c[nH]cn1)NC(=O)[C@H](CCC(N)=O)NC(=O)[C@H](CC(=O)O)NC(=O)[C@H](CCC(=O)O)NC(=O)[C@H](CC(=O)O)NC(=O)[C@H](Cc1ccccc1)NC(=O)[C@@H]1CCCN1C(=O)CCC(=O)NCCCOCCOCCOCCCNC(=O)CCCC[C@@H]1SC[C@@H]2NC(=O)N[C@@H]21)[C@@H](C)O)C(=O)N[C@H](C(=O)N[C@@H](CCCCN)C(=O)N[C@H](C(=O)O)C(C)C)[C@@H](C)O` [PTEN_13] ({X1-Suc}-PFDEDQHTQITKV-OH), the BI in [1] is recorded as 0.086; in assay [2], 0.089; in assay [3], 0.004; in [4] it was -0.006; in [5], 0.247; in assay [6], -0.06. Further, the BI in [7] was 0.031; in assay [8], -0.112; in assay [9] it was -0.001; in [10], 0.044. Further, the LogKD in assay [2] and in [10] was 3.826 throughout. In assay [5], the affinity, expressed as Kd, was 48.8 µM.

On to `CC[C@H](C)[C@H](NC(=O)[C@H](CCC(N)=O)NC(=O)[C@@H](NC(=O)[C@H](Cc1c[nH]cn1)NC(=O)[C@H](CCC(N)=O)NC(=O)[C@H](CC(=O)O)NC(=O)[C@H](CCC(=O)O)NC(=O)[C@H](CC(=O)O)NC(=O)CCC(=O)NCCCOCCOCCOCCCNC(=O)CCCC[C@@H]1SC[C@@H]2NC(=O)N[C@@H]21)[C@@H](C)O)C(=O)N[C@H](C(=O)N[C@@H](CCCCN)C(=O)N[C@H](C(=O)O)C(C)C)[C@@H](C)O` [PTEN_11], for which the BI is 0.022 in [1]; 0.13 in assay [2]; 0.065 in [3]; -0.016 in [4]; 0.388 in assay [5]; 0.055 in [6]. Moreover, the BI is -0.001 in [7], -0.092 in [8], -0.077 in assay [9] and 0.071 in assay [10]. Further, the LogKD in assay [1], in assay [3], in assay [4], in assay [6], in assay [7] and in assay [8] was 3.519 throughout. Moreover, the LogKD in assay [9] and in assay [10] was 3.519 in each case. For the same compound, binding in assay [5] was characterised by a dissociation constant (Kd) of 51.2 µM.

With `CC[C@H](C)[C@H](NC(=O)[C@H](CCC(N)=O)NC(=O)[C@@H](NC(=O)[C@H](Cc1c[nH]cn1)NC(=O)[C@H](CCC(N)=O)NC(=O)[C@H](CC(=O)O)NC(=O)[C@H](CCC(=O)O)NC(=O)[C@H](CC(=O)O)NC(=O)CCC(=O)NCCCOCCOCCOCCCNC(=O)CCCC[C@@H]1SC[C@@H]2NC(=O)N[C@@H]21)[C@@H](C)O)C(=O)N[C@H](C(=O)N[C@@H](CCCCNC(C)=O)C(=O)N[C@H](C(=O)O)C(C)C)[C@@H](C)O` [PTEN_Ac], the BI in assay [1] is given as 0.004; in assay [2], 0.445; in assay [3] it was -0.056; in assay [4], -0.116; in assay [5] it was 0.509; in assay [6], 0.067. Moreover, the results for the BI in assay [7], in assay [8] and in assay [10] were -0.021, -0.101 and 0.251, respectively. Besides, the LogKD in assay [1], in assay [3], in assay [4], in [6], in [7] and in [8] was 3.605 in each case. For the same compound, the Kd in assay [2] was 32.7 µM; in [5] it was 25 µM; in [10], 80.6 µM.
